Assay results: PMC3210919 (Biochemistry, 2011)

How the values were obtained:
[1] = test system: PC from B. Thermodenitrificans; settings: read-out: apparent Km for HCO3^−; presence of acetyl-CoA; ref [32]; cited from earlier work
[2] = test system: wild-type RePC (pyruvate carboxylase from R. etli); test: Pyruvate carboxylation activity, malate dehydrogenase coupled assay; type: biochemical, Rhizobium etli
wild-type RePC = wild-type RePC (Rhizobium etli, UniProt Q2K340); type: biochemical
sheep kidney PC = settings: noncompetitive with respect to MgATP, full forward reaction; ref [22]; cited from earlier work
[3] = labelled substrate varied, others saturating, pH 7.5, 25° C, 0.25 mM acetyl-CoA
[4] = extrapolated to saturating phosphonoacetate

| Km [2, 3] | kcat [2, 3] | Structure (SMILES) | Km [1] | fold lower Kii for MgADP phosphorylation than for pyruvate carboxylation (wild-type RePC) | fold lower Kis for MgADP phosphorylation than for pyruvate carboxylation (wild-type RePC) | type of inhibition with respect to carbamoyl phosphate (wild-type RePC) | V/Km at saturating phosphonoacetate, % of the uninhibited reaction (wild-type RePC; [4]) | Vmax at saturating phosphonoacetate, % of the uninhibited reaction (wild-type RePC; [4]) | Kii (intercept inhibition constant) (wild-type RePC; hyperbolic noncompetitive with respect to carbamoyl phosphate, eqn (10)) | type of inhibition with respect to MgATP [2] | Kii (intercept inhibition constant) ([2]; linear noncompetitive with respect to MgATP, eqn (9)) | Ki (sheep kidney PC) |
| --- | --- | --- | --- | --- | --- | --- | --- | --- | --- | --- | --- | --- |
| 10.8 ± 0.4 mM | 11.7 ± 0.333 s⁻¹ | O=C(O)O [HCO3^−] | 16 mM | – | – | – | – | – | – | – | – | – |
| – | – | O=C(O)CP(=O)(O)O [phosphonoacetate] | – | 890 fold | 100 fold | hyperbolic, noncompetitive inhibition | 1.5% | 1% | 0.021 ± 0.001 mM | noncompetitive | 18 ± 7 mM | 500 µM |
